Values quoted from earlier work as cited in patent publication US20050187278A1, “Treatment or prevention of vascular disorders with Cox-2 inhibitors in combination with cyclic AMP-specific phosphodiesterase inhibitors” (Pharmacia Corporation, priority 2003, published 2005).
One block for each molecule: values may come before it.

Legend:
PDE4 [1] = system: PDE4
PDE4 [2] = conditions: second of two values given 'respectively' for PDE3 and 4
PDE3 = conditions: first of two values given 'respectively' for PDE3 and 4

SMILES: COc1ccc([C@@H]2CNC(=O)C2)cc1OC1CCCC1 [Compound C6, (4R)-4-[3-(Cyclopentyloxy)-4-methoxyphenyl]pyrrolidin-2-one]
fold more potent than the S-(+) enantiomer (PDE4 [1]; PDE4 inhibitor rolipram, R-(-) versus S-(+) enantiomer): rolipram; 2-10-fold

SMILES: COc1ccc([C@H]2CNC(=O)C2)cc1OC1CCCC1 [Compound C7, (4S)-4-[3-(Cyclopentyloxy)-4-methoxyphenyl]pyrrolidin-2-one]
activity relative to the other enantiomer of the PDE4 inhibitor rolipram (PDE4 [1]; in words): Less active

IC50 (PDE4 [2]): 800 nM
IC50 (PDE3): 500 nM
SMILES: COc1cc(-c2ccc(=O)[nH]n2)ccc1OC(F)F [Compound C8, 6-[4-(Difluoromethoxy)-3-methoxyphenyl]-3(2H)-pyridazinone]
